Data taken from PubChem BioAssay (NCI).
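Dose response: 5 concentrations. Exposure: 48 h. Format: 96-well plates. Endpoint: linear interpolation; highest concentration if not reached. GI50: concentration for 50% inhibition of growth. The concentration for full growth arrest is given as TGI.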

Columns and labels:
Test in all cases: DTP human tumour cell line panel, 48 h
IGROV1 ovarian = system: IGROV1 ovarian
TK-10 renal = system: TK-10 renal
786-0 renal = system: 786-0 renal
SK-OV-3 ovarian = system: SK-OV-3 ovarian
HOP-92 NSCLC = system: HOP-92 NSCLC
COLO 205 colon = system: COLO 205 colon
MOLT-4 leukemia = system: MOLT-4 leukemia
SF-295 CNS = system: SF-295 CNS
SN12C renal = system: SN12C renal
NCI-H23 lung = system: NCI-H23 lung
A549 NSCLC = system: A549 NSCLC
HCC-2998 colon = system: HCC-2998 colon
M14 melanoma = system: M14 melanoma
SK-MEL-28 melanoma = system: SK-MEL-28 melanoma
LOX IMVI melanoma = system: LOX IMVI melanoma
UACC-62 melanoma = system: UACC-62 melanoma
NCI-H522 lung = system: NCI-H522 lung
OVCAR-5 ovarian = system: OVCAR-5 ovarian
DU-145 prostate = system: DU-145 prostate
U251 CNS = system: U251 CNS
HCT-15 colon = system: HCT-15 colon
UO-31 renal = system: UO-31 renal
OVCAR-4 ovarian = system: OVCAR-4 ovarian
NCI-H460 lung = system: NCI-H460 lung
HL-60(TB) leukemia = system: HL-60(TB) leukemia
SNB-75 CNS = system: SNB-75 CNS
MDA-MB-231 breast = system: MDA-MB-231 breast
RXF 393 renal = system: RXF 393 renal
SF-268 CNS = system: SF-268 CNS
HS 578T breast = system: HS 578T breast
K-562 leukemia = system: K-562 leukemia
NCI/ADR-RES ovarian = system: NCI/ADR-RES ovarian
SK-MEL-5 melanoma = system: SK-MEL-5 melanoma
ACHN renal = system: ACHN renal
UACC-257 melanoma = system: UACC-257 melanoma
SF-539 CNS = system: SF-539 CNS
KM12 colon = system: KM12 colon
CCRF-CEM leukemia = system: CCRF-CEM leukemia
NCI-H226 lung = system: NCI-H226 lung
BT-549 breast = system: BT-549 breast
OVCAR-8 ovarian = system: OVCAR-8 ovarian
RPMI-8226 leukemia = system: RPMI-8226 leukemia
MCF7 breast = system: MCF7 breast
SW-620 colon = system: SW-620 colon
HT29 colon = system: HT29 colon
CAKI-1 renal = system: CAKI-1 renal
PC-3 prostate = system: PC-3 prostate
SK-MEL-2 melanoma = system: SK-MEL-2 melanoma
EKVX NSCLC = system: EKVX NSCLC
HCT-116 colon = system: HCT-116 colon
MALME-3M melanoma = system: MALME-3M melanoma
MDA-MB-435 = system: MDA-MB-435
A498 renal = system: A498 renal
T-47D breast = system: T-47D breast
SNB-19 CNS = system: SNB-19 CNS
HOP-62 NSCLC = system: HOP-62 NSCLC
SR leukemia = system: SR leukemia
OVCAR-3 ovarian = system: OVCAR-3 ovarian

Cc1ccncc1N1CCN(c2ccnc(Cl)c2)C1=O was tested, and the GI50 (IGROV1 ovarian) was greater than 100 µM, the TGI (IGROV1 ovarian) was greater than 100 µM and the GI50 (TK-10 renal) was greater than 100 µM. It also gave a TGI (TK-10 renal) greater than 100 µM, a GI50 (786-0 renal) greater than 100 µM and a TGI (786-0 renal) greater than 100 µM. The GI50 (SK-OV-3 ovarian) was greater than 100 µM, the TGI (SK-OV-3 ovarian) was greater than 100 µM and the GI50 (HOP-92 NSCLC) was greater than 100 µM. The TGI (HOP-92 NSCLC) was greater than 100 µM, the GI50 (COLO 205 colon) was greater than 100 µM and the TGI (COLO 205 colon) was greater than 100 µM. It also gave a GI50 (MOLT-4 leukemia) greater than 100 µM, a TGI (MOLT-4 leukemia) greater than 100 µM and a GI50 (SF-295 CNS) greater than 100 µM. The TGI (SF-295 CNS) was greater than 100 µM, the GI50 (SN12C renal) was greater than 100 µM and the TGI (SN12C renal) was greater than 100 µM. The GI50 (NCI-H23 lung) was greater than 100 µM, the TGI (NCI-H23 lung) was greater than 100 µM and the GI50 (A549 NSCLC) was greater than 100 µM. The TGI (A549 NSCLC) was greater than 100 µM, the GI50 (HCC-2998 colon) was greater than 100 µM and the TGI (HCC-2998 colon) was greater than 100 µM. For the same molecule, the GI50 (M14 melanoma) was greater than 100 µM, the TGI (M14 melanoma) was greater than 100 µM and the GI50 (SK-MEL-28 melanoma) was greater than 100 µM. It also gave a TGI (SK-MEL-28 melanoma) greater than 100 µM, a GI50 (LOX IMVI melanoma) greater than 100 µM and a TGI (LOX IMVI melanoma) greater than 100 µM. The GI50 (UACC-62 melanoma) was greater than 100 µM, the TGI (UACC-62 melanoma) was greater than 100 µM and the GI50 (NCI-H522 lung) was greater than 100 µM. The TGI (NCI-H522 lung) was greater than 100 µM, the GI50 (OVCAR-5 ovarian) was greater than 100 µM and the TGI (OVCAR-5 ovarian) was greater than 100 µM. For the same molecule, the GI50 (DU-145 prostate) was greater than 100 µM, the TGI (DU-145 prostate) was greater than 100 µM and the GI50 (U251 CNS) was greater than 100 µM. The TGI (U251 CNS) was greater than 100 µM, the GI50 (HCT-15 colon) was greater than 100 µM and the TGI (HCT-15 colon) was greater than 100 µM. It also gave a GI50 (UO-31 renal) greater than 100 µM, a TGI (UO-31 renal) greater than 100 µM and a GI50 (OVCAR-4 ovarian) greater than 100 µM. It also gave a TGI (OVCAR-4 ovarian) greater than 100 µM, a GI50 (NCI-H460 lung) greater than 100 µM and a TGI (NCI-H460 lung) greater than 100 µM. For the same molecule, the GI50 (HL-60(TB) leukemia) was greater than 100 µM, the TGI (HL-60(TB) leukemia) was greater than 100 µM and the GI50 (SNB-75 CNS) was greater than 100 µM. The TGI (SNB-75 CNS) was greater than 100 µM, the GI50 (MDA-MB-231 breast) was greater than 100 µM and the TGI (MDA-MB-231 breast) was greater than 100 µM. For the same molecule, the GI50 (RXF 393 renal) was greater than 100 µM, the TGI (RXF 393 renal) was greater than 100 µM and the GI50 (SF-268 CNS) was greater than 100 µM. The TGI (SF-268 CNS) was greater than 100 µM, the GI50 (HS 578T breast) was greater than 100 µM and the TGI (HS 578T breast) was greater than 100 µM. The GI50 (K-562 leukemia) was greater than 100 µM, the TGI (K-562 leukemia) was greater than 100 µM and the GI50 (NCI/ADR-RES ovarian) was greater than 100 µM. For the same molecule, the TGI (NCI/ADR-RES ovarian) was greater than 100 µM, the GI50 (SK-MEL-5 melanoma) was greater than 100 µM and the TGI (SK-MEL-5 melanoma) was greater than 100 µM. It also gave a GI50 (ACHN renal) greater than 100 µM, a TGI (ACHN renal) greater than 100 µM and a GI50 (UACC-257 melanoma) greater than 100 µM. It also gave a TGI (UACC-257 melanoma) greater than 100 µM, a GI50 (SF-539 CNS) greater than 100 µM and a TGI (SF-539 CNS) greater than 100 µM. It also gave a GI50 (KM12 colon) greater than 100 µM, a TGI (KM12 colon) greater than 100 µM and a GI50 (CCRF-CEM leukemia) greater than 100 µM. The TGI (CCRF-CEM leukemia) was greater than 100 µM, the GI50 (NCI-H226 lung) was greater than 100 µM and the TGI (NCI-H226 lung) was greater than 100 µM. For the same molecule, the GI50 (BT-549 breast) was greater than 100 µM, the TGI (BT-549 breast) was greater than 100 µM and the GI50 (OVCAR-8 ovarian) was greater than 100 µM. It also gave a TGI (OVCAR-8 ovarian) greater than 100 µM, a GI50 (RPMI-8226 leukemia) greater than 100 µM and a TGI (RPMI-8226 leukemia) greater than 100 µM. For the same molecule, the GI50 (MCF7 breast) was greater than 100 µM, the TGI (MCF7 breast) was greater than 100 µM and the GI50 (SW-620 colon) was greater than 100 µM. The TGI (SW-620 colon) was greater than 100 µM, the GI50 (HT29 colon) was greater than 100 µM and the TGI (HT29 colon) was greater than 100 µM. It also gave a GI50 (CAKI-1 renal) greater than 100 µM, a TGI (CAKI-1 renal) greater than 100 µM and a GI50 (PC-3 prostate) greater than 100 µM. For the same molecule, the TGI (PC-3 prostate) was greater than 100 µM, the GI50 (SK-MEL-2 melanoma) was greater than 100 µM and the TGI (SK-MEL-2 melanoma) was greater than 100 µM. The GI50 (EKVX NSCLC) was greater than 100 µM, the TGI (EKVX NSCLC) was greater than 100 µM and the GI50 (HCT-116 colon) was greater than 100 µM. It also gave a TGI (HCT-116 colon) greater than 100 µM, a GI50 (MALME-3M melanoma) greater than 100 µM and a TGI (MALME-3M melanoma) greater than 100 µM. The GI50 (MDA-MB-435) was greater than 100 µM, the TGI (MDA-MB-435) was greater than 100 µM and the GI50 (A498 renal) was greater than 100 µM. For the same molecule, the TGI (A498 renal) was greater than 100 µM, the GI50 (T-47D breast) was greater than 100 µM and the TGI (T-47D breast) was greater than 100 µM. For the same molecule, the GI50 (SNB-19 CNS) was greater than 100 µM, the TGI (SNB-19 CNS) was greater than 100 µM and the GI50 (HOP-62 NSCLC) was greater than 100 µM. It also gave a TGI (HOP-62 NSCLC) greater than 100 µM, a GI50 (SR leukemia) greater than 100 µM and a TGI (SR leukemia) greater than 100 µM. For the same molecule, the GI50 (OVCAR-3 ovarian) was greater than 100 µM and the TGI (OVCAR-3 ovarian) was greater than 100 µM.
